Results as given in US20070142348A1, “Microbicidal, prophylactic and therapeutic effect of ctc-96 on papilloma viruses” (REDOX PHARMACEUTICAL CORPORATION, AUDUBON […] AND […], priority 2003, published 2007).
Several values for one entry are separate records, joined by “and”; a condition that tells them apart may be missing. Identical values can stand only once.

Columns and labels:
[1] = system: HPV-11; experiment: Effect of CTC-96 on the infectivity of HPV-11 (virus incubated with CTC-96 prior to infection of foreskin fragments), human xenograft SCID mouse model; format: in vivo, SCID mice; details: for Immunocytochemistry: grafts Negative for HPV (number): foreign body/fibrous counted as negative; for Histology: grafts Negative for HPV (number): foreign body reaction/fibrous tissue counted as negative; for Composite Geometric Mean Diameters (cGMD) of the Grafts, Median: 12 weeks; for Composite Geometric Mean Diameters (cGMD) of the Grafts, Mean ± SD: 12 weeks after grafting
Protocol: The effect of CTC-96™ on the infectivity of HPV-11 was evaluated in the human xenograft SCID mouse model. HPV type 11 is, with HPV-6, one of the two viruses responsible for the majority of anogenital warts in humans.
CTC-96™ in saline was incubated with HPV-11 prior to infection of human neonatal foreskin fragments. The fragments were then grafted onto SCID mice. The animals were monitored weekly. They were weighed at the time of grafting, and every other week during the 12 weeks of the experiment. There was no effect of HPV-11 treatment by CTC-96™ on the weight of the mice. The animals were sacrificed by cervical dislocation 12 weeks after graft implantation. Length, width, and height of the graft were measured and recorded. A composite geometric mean diameter (cGMD) of the grafts was calculated for each mouse. The grafts were then removed and analyzed by histology, immunocytochemistry and RT-PCR. Graft evaluation by immunocytochemistry utilized anti-common Papillomavirus antigen^4. Explanted grafts were homogenized and total RNA was extracted. HPV-11 viral cDNA was generated by nested RT-PCR.
Presence of HPV was defined by the presence of two out of three of the following features: acanthosis (an increase in the thickness of the stratum spinosum of the epidermis) koilocytosis (perinuclear vacuolation), or parakeratosis (persistence of the nuclei in the cells of the stratum corneum of the epidermis). As the CTC-96™ concentration increases the percentages of grafts containing HPV decreases, with none positive at the two higher concentrations. […] Two explanations are possible for the high number of foreign body reactions present in the grafts infected with the HPV-11 treated with the two highest concentrations of CTC-96™. The first is that CTC-96™ completely inactivated HPV-11. […] The alternate explanation is that CTC-96™ was toxic to the graft itself. This is unlikely since CTC-96™ has been used in vitro and in vivo in intravaginal preparations without associated toxicities at the concentrations used, and at the lowest concentration of CTC-96™ (0.05%), the number of grafts with a foreign body reaction was not different than that in the control group, thus toxicity would be unlikely to account for the lower number of HPV positive grafts (P=0.0 15; by Fisher exact test). Since CTC-96™ has a clear virucidal action at the lowest concentration (see Table 4), it is reasonable to assume that this virucidal action is present at higher concentrations, independent of the presence of a cytotoxic effect.
Table 4 presents the results and analysis of the HPV RT-PCR, which was performed by extracting total RNA from homogenized, explanted grafts and generating HPV-11 viral cDNA by nested RT-PCR. Using this assay, there is a strong and clear dose-response effect. Only with the highest dose of CTC-96™ is there complete obliteration of viral transcriptional activity.

[2] = system: Bovine Papillomavirus Type 1 (BPV-1); experiment: Inhibition of BPV-1 transformation of C127 mouse epithelial cells: exposure of virus to drug prior to infection; format: cell-based; details: duplicate values
Protocol: Experiments were performed to determine if CTC-96™ can inactivate the ability of bovine papillomavirus type 1 (BPV-1) to morphologically transform C127 mouse epithelial cells in culture. Cell-free stocks of BPV-1 were treated with CTC-96™ or placebo. In order to detect the transforming ability of BPV-1, sub-confluent cultures of C127 mouse cells are infected with a standardized inoculate of BPV-1. For the positive controls, stock virus was added to the culture medium present on the cells. The presence of morphologically transformed foci was counted after 2 weeks and then again at 3 weeks. Controls included non-infected cells (with or without drug) and untreated BPV-1.
Bovine Papillomavirus Type 1 (BPV-1) was mixed with CTC-96™, incubated for 10 minutes at 37° C. and then added to the cells. It is clear that CTC-96™ can inhibit the appearance of bovine Papillomavirus type 1 (BPV-1) induced transformation of C127 mouse epithelial cells in culture (Table 9).

[3] = HPV-11 treated with CTC-96 0.05%
[4] = HPV-11 treated with CTC-96 0.2%
[5] = concentration not printed in the table row (0.2% group)

## CC(/C=C(/C)[O-])=NCCN=C(C)/C=C(/C)[O-].Cc1ncc[nH]1.Cc1ncc[nH]1.[Br-].[Co+3] [CTC-96]
[1]; 12 weeks of the experiment
  Effect on the weight of the mice: no effect
[1]; CTC-96 0.05%
  Histology: grafts Positive for HPV (number): 4
  Histology: grafts Positive for HPV (percent): (26.7%)
  Immunocytochemistry: grafts Positive for HPV (number): 2
  Immunocytochemistry: grafts Positive for HPV (percent): (12.5%)
  RT-PCR: grafts HPV-11 Negative (number): 7
  RT-PCR: grafts HPV-11 Positive (number): 9
  RT-PCR: grafts HPV-11 Positive (percent): (56.2%)
  Histology: grafts Negative for HPV (number): 11
[1]; CTC-96 0.05%, anti-common Papillomavirus antigen
  Immunocytochemistry: grafts Negative for HPV (number): 14
[1]; CTC-96 0.2%
  Histology: grafts Positive for HPV (number): 0
  Histology: grafts Positive for HPV (percent): (0%)
  Immunocytochemistry: grafts Positive for HPV (number): 0
  Immunocytochemistry: grafts Positive for HPV (percent): (0%)
  Histology: grafts Negative for HPV (number): 12
  Immunocytochemistry: grafts Negative for HPV (number): 12
[1]; CTC-96 1%
  Histology: grafts Positive for HPV (number): 0
  Histology: grafts Positive for HPV (percent): (0%)
  Immunocytochemistry: grafts Positive for HPV (number): 0
  Immunocytochemistry: grafts Positive for HPV (percent): (0%)
  RT-PCR: grafts HPV-11 Negative (number): 15
  RT-PCR: grafts HPV-11 Positive (number): 0
  RT-PCR: grafts HPV-11 Positive (percent): (0%)
  Histology: grafts Negative for HPV (number): 16
  Immunocytochemistry: grafts Negative for HPV (number): 17
[1]; [3]
  Composite Geometric Mean Diameters (cGMD) of the Grafts, Median: 2.01 mm
  Composite Geometric Mean Diameters (cGMD) of the Grafts, Mean ± SD: 2.02 ± 0.179 mm
[1]; [4]
  Composite Geometric Mean Diameters (cGMD) of the Grafts, Median: 1.88 mm
  Composite Geometric Mean Diameters (cGMD) of the Grafts, Mean ± SD: 1.86 ± 0.196 mm
[1]; HPV-11 treated with CTC-96 1%
  Composite Geometric Mean Diameters (cGMD) of the Grafts, Median: 1.94 mm
  Composite Geometric Mean Diameters (cGMD) of the Grafts, Mean ± SD: 1.95 ± 0.139 mm
[1]; [5]
  RT-PCR: grafts HPV-11 Negative (number): 5
  RT-PCR: grafts HPV-11 Positive (percent): (28.6%)
[1]; highest concentration of CTC-96 (1%)
  Virucidal effect on HPV-11: completely virucidal
[1]; mouse, in vivo
  Effect on the animals' mortality or weight gain: no effect
[2]; CTC-96 0.1 mg/ml mixed with BPV-1, 10 minutes at 37° C.
  Number of Transformed Foci at 3 weeks: 68 and 80
[2]; CTC-96 0.2 mg/ml mixed with BPV-1, 10 minutes at 37° C.
  Number of Transformed Foci at 3 weeks: 80 and 82
[2]; CTC-96 0.5 mg/ml mixed with BPV-1, 10 minutes at 37° C.
  Number of Transformed Foci at 3 weeks: 25 and 40
